{
  "source": "patent US9339564B2",
  "about": "“Ether and alkyl phospholipid compounds for treating cancer and imaging and detection of cancer” (Cellectar, Inc., priority 2009, dated 2016)",
  "key": {"[1]": {"test_system": "solid xenograft and spontaneous human tumor and rodent tumor models", "experiment": "Tumor uptake and retention of CLR1404 in tumor models", "format": "in vivo", "settings": "over fifty solid xenograft and spontaneous human tumor and rodent tumor models", "source_text": "(§1) We have developed several series of tumor-selective radiolabeled ether and alkyl phospholipid compounds for imaging, characterization, and treatment of malignant tumors. […] Cellular signaling and regulation of phospholipids, including phospholipase-D and its isoforms, as well as Phosphatase and Tensin Homologue Deleted from Chromosome-10 (PTEN) and phosphatidylinositol phosphate (PIPn) pathways, are known to be directly involved in upstream regulation of many key oncogenic pathways. We now have strong evidence that the uptake and retention of our PLE analogs is due at least in part to these upstream regulation and signaling cancer cell pathways."}, "[2]": {"test_system": "benign or premalignant lesions or inflammatory lesions", "experiment": "Localization of CLR1404 in non-malignant lesions", "format": "in vivo", "settings": "stated in contrast to 18F-FDG", "source_text": "as §1"}},
  "data": [
    {"smiles": "C[N+](C)(C)CCOP(=O)([O-])OCCCCCCCCCCCCCCCCCCc1ccc(I)cc1", "note": "[CLR1404, 18-(p-iodophenyl)octadecyl phosphocholine]", "values": [
      {"measurement": "uptake and retention in tumors", "setting": "[1]", "result": "striking uptake and prolonged selective retention properties"},
      {"measurement": "localization in benign, premalignant or inflammatory lesions", "setting": "[2]", "result": "does not localize in benign or premalignant lesions or in inflammatory lesions"}
    ]}
  ]
}
